Results published in patent US6495591B1, “Fungal efflux pump inhibitors” (Essential Therapeutics, Inc., priority 1997, dated 2002).
Read-outs that look alike come from different tables or passages of the source.

Columns and labels:
Assay type in all cases: cell-based
[1] = test system: YEM 17 C. glabrata, CgCDR up; settings: 24 hrs, 80% inhibition; for MIC of compound in the presence of fluconazole (+): 1/8 × MIC of fluconazole
[2] = test system: YEM 24 C. albicans ΔCDR1, ΔCDR2; assay: microbe, parasite or virus in culture; settings: YEM 24, 24 hrs, 80% inhibition; for MIC of compound in the presence of fluconazole (+): 1/8 × MIC of fluconazole
[3] = test system: YEM 15 C. albicans, CDR1CDR2 up; assay: microbe, parasite or virus in culture; settings: YEM 15, 24 hrs, 80% inhibition; for MIC of compound in the presence of fluconazole (+): 1/8 × MIC of fluconazole
[4] = test system: YEM 27 C. albicans ΔCDR1ΔCDR2 ΔBENΔFLU1; assay: microbe, parasite or virus in culture; settings: YEM 27, 24 hrs, 80% inhibition; for MIC of compound in the presence of fluconazole (+): 1/8 × MIC of fluconazole
YEM 53 C. krusei = assay: FEPI MIC with/without 1/8 fluconazole MIC at 24 hrs (Table 11)
Aspergillus fumigatus = assay: FEPI MICs in combination with 1/4 the azole's MIC (Table 12); parameters: FEPI MIC (alone): unit not given here; settings: for FEPI MIC with itraconazole, 60% Inh / FEPI MIC with itraconazole, 80% Inh: itraconazole 0.063 μg/ml (1/4 MIC); for FEPI MIC with ketoconazole, 60% Inh / FEPI MIC with ketoconazole, 80% Inh: ketoconazole 4 μg/ml (1/4 MIC); for FEPI MIC (alone): no azole, 35° C., CM Broth
Experimental: The combinations were tested against a series of Candida strain with known expression of efflux pumps or with complete deletion of all known pumps and Aspergillus fumigatus. Results are reported as minimum inhibitory concentration (MIC) of […] in the presence or absence of […]. A total of 27 distinct milbemycins were studied.

[5] = test system: YEM 13 C. albicans BEN up; assay: microbe, parasite or virus in culture; settings: YEM 13, 24 hrs, 80% inhibition; for MIC of compound in the presence of fluconazole (+): 1/8 × MIC of fluconazole
YEM 30 C. albicans wt = assay: FEPI MIC with/without 1/8 fluconazole MIC at 24 hrs (Table 11)
YEM 51 C. glabrata wt = assay: as above
[6] = YEM 53, 1/8 × MIC of fluconazole, 24 hrs, 80% inhibition
[7] = fluconazole 32 μg/ml (1/4 MIC), 60% inhibition
[8] = fluconazole 32 μg/ml (1/4 MIC), 80% inhibition
[9] = YEM 30, 1/8 × MIC of fluconazole, 24 hrs, 80% inhibition
[10] = YEM 51, 1/8 × MIC of fluconazole, 24 hrs, 80% inhibition

Compound	MIC of compound in the presence of fluconazole (+) [1] [µg/mL]	MIC of compound in the absence of fluconazole (−) [1] [µg/mL]	MIC of compound in the presence of fluconazole (+) [2] [µg/mL]	MIC of compound in the absence of fluconazole (−) [2] [µg/mL]	MIC of compound in the presence of fluconazole (+) [3]	MIC of compound in the absence of fluconazole (−) [3] [µg/mL]	MIC of compound in the presence of fluconazole (+) [4] [µg/mL]	MIC of compound in the absence of fluconazole (−) [4] [µg/mL]	MIC of compound in the presence of fluconazole (+) (YEM 53 C. krusei; [6]) [µg/mL]	MIC of compound in the absence of fluconazole (−) (YEM 53 C. krusei; YEM 53, 24 hrs, 80% inhibition) [µg/mL]	FEPI MIC with fluconazole, 60% Inh (Aspergillus fumigatus; [7])	FEPI MIC with itraconazole, 60% Inh (Aspergillus fumigatus; 60% inhibition)	FEPI MIC with itraconazole, 80% Inh (Aspergillus fumigatus; 80% inhibition)	FEPI MIC with ketoconazole, 60% Inh (Aspergillus fumigatus; 60% inhibition)	FEPI MIC with ketoconazole, 80% Inh (Aspergillus fumigatus; 80% inhibition)	FEPI MIC (alone) (Aspergillus fumigatus; 80% inhibition)	MIC of compound in the presence of fluconazole (+) [5] [µg/mL]	MIC of compound in the absence of fluconazole (−) [5] [µg/mL]	MIC of compound in the absence of fluconazole (−) (YEM 30 C. albicans wt; YEM 30, 24 hrs, 80% inhibition) [µg/mL]	MIC of compound in the absence of fluconazole (−) (YEM 51 C. glabrata wt; YEM 51, 24 hrs, 80% inhibition) [µg/mL]	further results
8-Methyl-5,6-dihydroxymilbemycin β1 [Compound 19]	64	> 64	32	> 64	≦0.03	> 64	16	> 64	8	> 64	32	8	>64	≦0.063	≦0.063	64	16	> 64	8	> 64	FEPI MIC with fluconazole, 80% Inh (Aspergillus fumigatus; [8]): 64; MIC of compound in the presence of fluconazole (+) (YEM 30 C. albicans wt; [9]): ≦0.03; MIC of compound in the presence of fluconazole (+) (YEM 51 C. glabrata wt; [10]): > 64 µg/mL
8-Methyl-8-deoxymilbemycin β1 [Compound 24]	1	> 64	> 64	> 64	≦0.03	> 64	64	> 64	> 64	> 64	64	64	64	≦0.063	≦0.063	64	64	> 64	> 64	> 64	FEPI MIC with fluconazole, 80% Inh (Aspergillus fumigatus; [8]): 64; MIC of compound in the presence of fluconazole (+) (YEM 30 C. albicans wt; [9]): ≦0.03; MIC of compound in the presence of fluconazole (+) (YEM 51 C. glabrata wt; [10]): 0.125 µg/mL
CC[C@H](C)[C@H]1O[C@]2(CC[C@@H]1C)C[C@@H]1C[C@@H](C/C=C(\C)[C@@H](O[C@H]3C[C@H](OC)[C@@H](O[C@H]4C[C@H](OC)[C@@H](O)[C@H](C)O4)[C@H](C)O3)[C@@H](C)/C=C/C=C3\CO[C@@H]4[C@H](O)C(C)=C[C@@H](C(=O)O1)[C@]34O)O2 [Compound 1, Ivermectin B1a]	> 64	> 64	> 64	> 64	> 64 µg/mL	> 64	64	> 64		> 64		>64	>64	>64	>64	>64	> 64	> 64	> 64	> 64	MIC of compound in the presence of fluconazole (+) (YEM 53 C. krusei): 8 µg/mL; FEPI MIC with fluconazole, 60% Inh (Aspergillus fumigatus): >64; FEPI MIC with fluconazole, 80% Inh (Aspergillus fumigatus): >64; MIC of compound in the presence of fluconazole (+) (YEM 30 C. albicans wt): ≦0.03; MIC of compound in the presence of fluconazole (+) (YEM 51 C. glabrata wt): 64 µg/mL
